Patent US11920158B2, “Cardiomyocyte maturation” (The Council of the Queensland Institute of Medical Research, priority 2016, dated 2024)
Like-named read-outs stand apart in the source and are kept apart here.

Columns and labels:
[1] = system: hPSC-CMs in human cardiac organoids (hCOs); experiment: Whole-mount immunostaining and image analysis of hCO (Ki-67, pH3, MLC2v, activated β-catenin, 8-OxoG, pATM, α-actinin, DNA); format: cell-based
Procedure: hCOs were fixed for 60 min with 1% paraformaldehyde (Sigma) at room temperature and washed 3× with PBS, after which they were incubated with primary antibodies (Table 1) in Blocking Buffer, 5% FBS and 0.2% Triton-X-100 (Sigma) in PBS overnight at 4° C. Cells were then washed in Blocking Buffer 2× for 2 h and subsequently incubated with secondary antibodies (Table 1) and Hoescht (1:1000) overnight at 4° C. They were washed in Blocking Buffer 2× for 2 h and imaged in situ or mounted on microscope slides using Fluoromount-G (Southern Biotech). For screening hCO were imaged using a Leica DMi8 high content imaging microscope for in situ imaging. Custom batch processing files were written in Matlab R2013a (Mathworks) to remove the background, calculate the image intensity, and export the batch data to an Excel (Microsoft) spreadsheet. For more detailed images an Olympus IX81 confocal microscope or a Nikon Diskovery Spinning Disk confocal microscope for mounted imaging. For cell cycle analysis experiments 3 random fields of view were imaged and manually quantified for proliferation. These were added together to calculate the percentage of hPSC-CM proliferation in each hCO.

[2] = system: human cardiac organoids (hCOs); experiment: Force analysis of hCO in Heart-Dyno (pole deflection, contraction parameters); format: cell-based; details: for EC50: read-out: calcium EC50 for force of contraction
Procedure: CTRL medium: α-MEM GlutaMAX (ThermoFisher Scientific), 10% fetal bovine serum (FBS) (ThermoFisher Scientific), 200 μM L-ascorbic acid 2 phosphate sesquimagnesium salt hydrate (Sigma) and 1% Penicillin/Streptomycin (ThermoFisher Scientific). For each hCO, 5×10^4 cardiac cells in CTRL medium were mixed with collagen I to make a 3.5 μl final solution containing 2.6 mg/ml collagen I and 9% Matrigel. The bovine acid-solubilized collagen I (Devro) was first salt balanced and pH neutralized using 10×DMEM and 0.1 M NaOH, respectively, prior to mixing with Matrigel and cells. The mixture was prepared on ice and pipetted into the Heart-Dyno. The Heart-Dyno was then centrifuged at 100×g for 10 s to ensure the hCO form halfway up the posts. The mixture was then gelled at 37° C. for 30 min prior to the addition of CTRL medium to cover the tissues (150 μl/hCO). The Heart-Dyno design facilitates the self-formation of tissues around in-built PDMS exercise poles (designed to deform ˜0.07 μm/μN). The medium was changed every 2-3 days (150 μl/hCO). hCOs were cultured in CTRL medium for formation and then changed to serum-free media as indicated for experiments. For all screening experiments, after hCO formation, hCOs were cultured in serum-free conditions comprising DMEM without glucose, glutamine and phenol red (ThermoFisher Scientific) supplemented with 4% B27 (with or without insulin) (ThermoFisher Scientific), 1% GlutaMAX (ThermoFisher Scientific), 200 μM L-ascorbic acid 2 phosphate sesquimagnesium salt hydrate and 1% Penicillin/Streptomycin (ThermoFisher Scientific). […] A timeline of the finalized hCO fabrication, culture and maturation protocol can be found in FIG. 1m.
The pole deflection was used to approximate the force of contraction. A Leica DMi8 inverted high content Imager was used to capture a 10 s time-lapse of each hCO contracting in real time at 37° C. Custom batch processing files were written in Matlab R2013a (Mathworks) to convert the stacked TIFF files to AVI, track the pole movement (using vision.PointTracker), determine the contractile parameters, produce a force-time figure, and export the batch data to an Excel (Microsoft) spreadsheet.
Custom batch processing files were written in Matlab R2013a (Mathworks) to convert the stacked TIFF files to AVI, track the pole movement (using vision.PointTracker), determine the contractile parameters, produce a force-time figure, and export the batch data to an Excel (Microsoft) spreadsheet. The follow formulae were used to determine the contractile force at each time-point. Maximum deflection at the end of a rectangular cantilever fixed at one end with force applied at a specified distance:
Based on the parameters of our system: E=1500 kPa, b=0.5 mm, h=0.2 mm, L=0.7 mm, and x=0.35 mm (hCO half-way up the poles), k=14 μN/μm.

[3] = system: human cardiac organoids (hCOs); experiment: ELISAs for lactate dehydrogenase and cardiac troponin I (cell viability of hCO); format: cell-based; details: addition of palmitate, serum-free culture of hCOs
[4] = system: human cardiac organoids (hCOs); experiment: hCO tissue viability (viable, intact and functional tissues); format: cell-based; details: prolonged presence within the maturation media
adult cardiac muscle = details: ref (23), read-out: calcium EC50; cited from earlier work

Compound: Cc1c[nH]c(-c2cnc(NCCNc3ccc(C#N)cn3)nc2-c2ccc(Cl)cc2Cl)n1 [CHIR99021, reference compound]
- proliferating (Ki-67) hPSC-CMs (α-actinin) ([1]; hCOs cultured in MM, 24 h treatment): blunted proliferative response
- proliferation (α-actinin and Ki-67 staining) ([1]; hCOs, 5 μm CHIR vs 0.05% DMSO): pro-proliferative effects

Compound: CCCCCCCCCCCCCCCC(=O)O [palmitate, palmitic acid]
- hCO force of contraction ([2]; 100 μM palmitate, absence of insulin, 0.5, 1 and 5.5 mM glucose): significantly higher forces
- hCO force of contraction ([2]; addition of 10 μM and 100 μM palmitate, serum-free conditions with insulin, vs 0 μM palmitate): trend to increase
- lactate dehydrogenase levels [3]: unaffected
- MLC2v expression ([1]; addition of palmitate, serum-free with insulin, relative to 5.5 mM glucose without palmitate): increased
- MLC2v expression ([1]; palmitate, absence of insulin): trend to increased MLC2v expression

Compound: insulin: insulin, commonly used in serum-free medium supplements (B27 with insulin)
- activated β-catenin ([1]; 48 h, regardless of glucose or palmitate): highly dependent on insulin
- re-activation of hPSC-CM proliferation (Ki-67) ([1]; addition of insulin after 11 days in MM): not sufficient to re-activate
- hPSC-CM proliferation (Ki-67 expression) ([1]; serum-free conditions, 1 mM glucose and 10 μM palmitate): inducing hPSC-CM proliferation

Compound: TGF-β1: TGFβ-1 growth factor (Peprotech)
- hCO function (force of contraction) ([2]; 0, 1, 3 and 10 ng/ml, day 2-5, 2-7 and 2-9, H9-derived hCOs): detrimental to hCO function
- contractile function ([2]; prolonged presence within the maturation media): compromised the contractile function
- cell death [4]: significant cell death

Compound: CC(C)NCC(O)c1ccc(O)c(O)c1 (centres unmarked) [isoprenaline, reference compound]
- force of contraction ([2]; hCOs cultured in MM, culture medium 1.8 mM Ca2+ (no increase in CTRL medium)): increase in the force of contraction
- rate of contraction ([2]; hCOs in both CTRL medium and MM): increased the rate of contraction
- 50% contraction time ([2]; paced 1 Hz at the calcium EC50, both CTRL medium and MM hCO): decreased 50% contraction time

Compound: [Ca+2] [calcium]
- EC50 ([2]; hCOs cultured in CTRL medium): 300 µM
- EC50 ([2]; hCOs cultured in MM): 1000 µM
- EC50 (adult cardiac muscle): 2600 to 6000 µM

Compound: COc1cc(N)c(Cl)cc1C(=O)NC1CCN(CCCOc2ccc(F)cc2)CC1OC (centres unmarked) [cisapride, reference compound]
- relaxation time ([2]; hCO, pro-arrhythmogenic compound with hERG toxicity): prolong relaxation time
